Results from patent US20210228490A1, “STABLE PHARMACEUTICAL FORMULATION” (ORYZON GENOMICS, S.A., priority 2018, published 2021).
“Also recorded” adds a separate entry of the source.

Assay: Chemical stability of the API alone and in presence of excipients
Format: physicochemical
Method: Excipient selection/composition development was conducted in order to stabilize (trans)-N1-((1R,2S)-2-phenylcyclopropyl)cyclohexane-1,4-diamine in the final drug product to prevent its chemical degradation. (trans)-N1-((1R,2S)-2-phenylcyclopropyl)cyclohexane-1,4-diamine is very unstable in presence of excipients which are used to form a tablet composition. This is reflected by a decrease of the (trans)-N1-((1R,2S)-2-phenylcyclopropyl)cyclohexane-1,4-diamine content (assay) over time upon storage. The effect is more pronounced at elevated storage temperature.

chemical stability as an API (API alone): chemically very stable
SMILES: N[C@H]1CC[C@H](N[C@@H]2C[C@H]2c2ccccc2)CC1 [(trans)-N1-((1R,2S)-2-phenylcyclopropyl)cyclohexane-1,4-diamine]
stability in presence of excipients (in presence of excipients which are used to form a tablet composition, more pronounced at elevated storage temperature): very unstable; also recorded: decompose in presence of many excipients
